Measurements from patent publication US20240122930A1, “INTEGRIN INHIBITORS AND USES THEREOF IN COMBINATION WITH OTHER AGENTS” (Pliant Therapeutics, Inc., priority 2022, published 2024).
Read-outs that look alike come from different tables or passages of the source.

Key:
bleomycin-treated mice = assay: Murine bleomycin model (pSMAD3, collagen deposition); assay type: in vivo, mice (C57BL/6)
Protocol: Mice (C57BL/6) were divided into healthy (n=15), vehicle-treated (n=15), and test article-treated (n=15 per dose) groups. Mice in the vehicle and test article-treated groups were administered 3 U/kg of bleomycin (Teva Pharmaceuticals; North Wales, PA) via oropharyngeal aspiration while under anesthesia on day 0. Healthy animals were administered water in a similar fashion. Starting on day 7, mice in the control group were administered PBS vehicle, 130 μL, by oral gavage, BID for 14 days. Also starting on day 7, mice in the test group were administered Compound 5 in PBS by oral gavage, BID for 14 days, at relative dosages of 1×, 2.5× and 5×. […] From day 14 through day 21, 9 of the 15 mice were administered ^2H2O for labeling. All mice were sacrificed on day 21 and tissues were collected. Samples were prepared for analysis either directly from lung tissue, or by bronchoalveolar lavage, which washes out the bronchiolar and alveolar space with saline to produce a bronchoalveolar lavage fluid (BALF) in which 80-90% of cells are alveolar macrophages.
FIGS. 4F, 4G, and 4H show high resolution second harmonic generation images of fibrillar collagen (collagen type I and III) taken from formalin-fixed paraffin embedded lung tissue sections from a healthy mouse lung (4F), a vehicle-treated mouse lung (4G) and a test-article treated mouse lung (4H; 500 mg/kg BID). Color scale is indicative of collagen fiber density (red=most dense; blue=least dense).
FIG. 41 is a graph showing the percent total collagen area in the second harmonic generation mouse lung images. Large structural areas of collagen found similarly in healthy and fibrotic tissues (dense collagen fibers surrounding airways were excluded from this analysis to focus on interstitial fibrotic collagen). […] The 1×, 2.5×, and 5× dosages were at the same absolute values in mg/kg as in Example B7.
The data for FIGS. 4J and 4K, was obtained 14 days after bleomycin challenge in mice were treated with Compound 5 at 2.5× dose (PO, BID for 1.5 days).

[1] = tested on: Type I Collagen gene Col1a1 expression; assay: Precision cut lung slices, acute bleomycin exposure, Col1a1 expression; assay type: cell-based, mice (C57BL/6); settings: acute bleomycin PCLS, 3 days culture; integrin inhibitors at IC50 for TGF-beta activation, pan-αV and ALK5 inhibitors at 10× IC50
Protocol: Mice (C57BL/6) were administered 3 U/kg of bleomycin (Teva Pharmaceuticals; North Wales, PA) on day 0 via oropharyngeal aspiration while under anesthesia. On day 14, precision cut lung slices were obtained. Following euthanization, 2% low gelling temp agarose was injected into the mouse lungs via the trachea. […] The lobes were then subjected to precision slicing to obtain samples for culture using a microtome (Compresstome VF-300-OZ, Precisionary; Greenville, NC). Individual slices were distributed in a multiwell culture plate and cultured for 3 days under control (DMSO) and test compound conditions. The viability of the slices over the course of culturing was confirmed by WST-1 assay of mitochondrial activity.

[2] = SAD and MAD first-in-human pharmacokinetic studies; assay type: in vivo; settings: SAD study, 75 mg oral solution, healthy human subjects; for AUC(0-t): human, po, 75 mg
Protocol: Healthy human subjects (N=85) were selected for single ascending dose (SAD) and multiple ascending dose (MAD) first-in-human studies. A solution for oral administration was prepared, containing 10 mg/mL of Compound 5 in a 50:50 mixture of […], Michigan) and sterile water for irrigation. Sufficient solution was administered orally to the subjects to provide between 15 mg/dose and 75 mg/dose of Compound 5 in the SAD study and between 10 mg/dose and 40 mg/dose of Compound 5 in the MAD study. Concentrations of Compound 5 were measured in the subjects by obtaining a sample of plasma from each subject at desired intervals, and subjecting the plasma to liquid chromatography-mass spectrometry-mass spectrometry (LC-MS/MS), with quantification using a calibration curve determined from a range of solutions at standardized concentrations. The lower limit of quantitation (LLOQ) of the assay was 1 ng/mL and the calibration curve range was 1 to 500 ng/mL.

[3] = tested on: participants with idiopathic pulmonary fibrosis (IPF); assay: Phase 2a clinical trial: High Resolution CT-based Quantitative Lung Fibrosis (QLF) imaging; assay type: in vivo, human; settings: for Mean Percent Change in QLF Extent From Baseline to Week 12 (Mean Difference) / Median change in QLF Extent From Baseline to Week 12 / QLF extent change Baseline to Week 12: Improvers < −2%, % / QLF extent change Baseline to Week 12: Stable [−2, 2%), % / QLF extent change Baseline to Week 12: Worse > 2%, %: CT Protocol Population
Protocol: Study Design and Objectives. […] At Day 1, baseline values were collected.
[…]-IPF study design and objectives.
QLF was measured by computed tomography. […] QLF refers to quantitative lung fibrosis. […] Per CT protocol population: Participants with both baseline and post baseline high resolution computed tomography (HRCT) scans meet evaluability criteria per Imaging Charter.

integrin beta-6 (ITGB6) = assay: Phase 2a clinical trial: plasma integrin beta-6; assay type: in vivo, human; settings: IPF participants; greatest effect at 320 mg
Text: Med. 2022 June; 10(6):593-602, which is incorporated herein by reference in its entirety. […] Res. 2019 Jul. 12; 20(1):148, which is incorporated herein by reference in its entirety. ** denotes that p<0.01 vs placebo. LS refers to Least Squares. SE refers to Standard Error. Integrin beta-6 data was reported in relative quantitation log2 scale.

[4] = tested on: participants with idiopathic pulmonary fibrosis (IPF); assay: Phase 2a clinical trial: quantitative ground glass (QGG) score on HRCT; assay type: in vivo, human; settings: for QGG score, Change to Week 12, LS Mean (SE): placebo 0.0 (0.63); for QGG score, Change to Week 24, LS Mean (SE): placebo −0.7 (1.66)
[5] = Dose-Dependent Target Engagement (FIG. 12, prior studies); assay type: in vivo, human
Text: FIG. 12 through FIG. 33 illustrate various details and results from the clinical trial. […] In FIG. 12, BAL refers to bronchoalveolar lavage; pSmad2/Smad2 refers to ratio of phosphorylated Smad2 to total Smad2; and QD refers to once daily. **** refers to p<0.0001.

[6] = tested on: patients with idiopathic pulmonary fibrosis (IPF); assay: Phase 2a randomized, double-blind, placebo-controlled trial in IPF; assay type: in vivo, human; settings: FIG. 36
[7] = bleomycin mice, 1×, […], 5×, vs control mice

COCCN(CCCCc1ccc2c(n1)NCCC2)CC[C@H](Nc1ncnc2ccccc12)C(=O)O [Compound 5, (S)-4-((2-methoxyethyl) (4-(5,6,7,8-tetrahydro-1,8-naphthyridin-2-yl)butyl)amino)-2-(quinazolin-4-ylamino) butanoic acid]
relationship between pSMAD3 levels in lung and BALF cells vs. plasma drug exposure (bleomycin-treated mice; 14 days after bleomycin challenge, […] dose PO BID for 1.5 days): close inverse relationship | accumulated new collagen (percentage of lung collagen containing 2H-labeled hydroxyproline) (bleomycin-treated mice; bleomycin mice, 1× and 5×, vs control mice): dose-dependent reduction | percent total collagen area in second harmonic generation images (bleomycin-treated mice; [7]): substantial, statistically significant dose-dependent reduction | total pulmonary collagen (μg of hydroxyproline) (bleomycin-treated mice; [7]): reduction in total pulmonary collagen | SMAD3 phosphorylation in lung tissue (bleomycin-treated mice; bleomycin mice, oral gavage BID 14 days, 1×, […], 5× dosages, vs vehicle): substantial, statistically significant dose-dependent reductions | Type I Collagen gene Col1a1 expression, normalized to DMSO control slices [1]: decreased Type I Collagen gene Col1a1 expression substantially | Thalf [2]: 20.0 ± 3.6 h | AUC(0-t) ([2]; plasma, read-out: AUC0-24): 19.7 ± 10.9 µg·h/mL | AUC(0-t) ([2]; plasma, read-out: AUC0-48): 22.5 ± 15.7 µg·h/mL | Cmax ([2]; plasma): 1.87 ± 1.24 µg/mL | Tmax ([2]; plasma): 2.9 ± 1 h | Mean Percent Change in QLF Extent From Baseline to Week 12 (Mean Difference) ([3]; 40 mg (N = 15)): 3.15% | Median change in QLF Extent From Baseline to Week 12 ([3]; 40 mg (N = 15)): 1.50% | QLF extent change Baseline to Week 12: Improvers < −2%, % ([3]; 40 mg (N = 15)): (6.6%) | QLF extent change Baseline to Week 12: Stable [−2, 2%), % ([3]; 40 mg (N = 15)): (46.7%) | QLF extent change Baseline to Week 12: Worse > 2%, % ([3]; 40 mg (N = 15)): (46.7%) | Mean Percent Change in QLF Extent From Baseline to Week 12 (Mean Difference) ([3]; 80 mg (N = 18)): 0.7% | Median change in QLF Extent From Baseline to Week 12 ([3]; 80 mg (N = 18)): −0.45% | QLF extent change Baseline to Week 12: Improvers < −2%, % ([3]; 80 mg (N = 18)): (11.1%) | QLF extent change Baseline to Week 12: Stable [−2, 2%), % ([3]; 80 mg (N = 18)): (72.2%) | QLF extent change Baseline to Week 12: Worse > 2%, % ([3]; 80 mg (N = 18)): (16.7%) | Mean Percent Change in QLF Extent From Baseline to Week 12 (Mean Difference) ([3]; 160 mg (N = 14)): 0% | Median change in QLF Extent From Baseline to Week 12 ([3]; 160 mg (N = 14)): −0.10% | QLF extent change Baseline to Week 12: Improvers < −2%, % ([3]; 160 mg (N = 14)): (28.6%) | QLF extent change Baseline to Week 12: Stable [−2, 2%), % ([3]; 160 mg (N = 14)): (50.0%) | QLF extent change Baseline to Week 12: Worse > 2%, % ([3]; 160 mg (N = 14)): (21.4%) | Progression based on mean change from baseline in QLF ([3]; 160 mg and 320 mg groups, Week 12): No or limited progression | Likelihood of stabilization or improvement of fibrosis (QLF) relative to placebo at Week 24 ([3]; 320 mg): twice as likely | Mean (SD) Change in QLF Extent from Baseline at Week 12 ([3]; 320 mg (n=16), Per CT protocol population, placebo (n=25) 1.46%): 0.2% | Patients with stable or improved QLF from baseline at week 24 ([3]; 320 mg, per CT protocol population, stable −2% to 2%, improved <−2%, placebo 33%): 71% | Patients with worsened QLF from baseline at week 24 ([3]; 320 mg, per CT protocol population, worsened >2%, placebo 67%): 29% | Antifibrotic effect on QLF imaging ([3]; 40 to 320 mg, Week 12): Dose-dependent antifibrotic effect | Circulating (plasma) integrin beta-6 levels relative to placebo (integrin beta-6 (ITGB6)): reduced | QGG score, Change to Week 12, LS Mean Diff (SE) vs. Placebo ([4]; 40 mg (n 15)): 1.3 (1.04) | QGG score, Change to Week 12, LS Mean (SE) ([4]; 40 mg (n 15)): 1.3 (0.82) | QGG score, Change to Week 12, LS Mean Diff (SE) vs. Placebo ([4]; 80 mg (n 18)): −1.2 (0.98) | QGG score, Change to Week 12, LS Mean (SE) ([4]; 80 mg (n 18)): −1.2 (0.74) | QGG score, Change to Week 12, LS Mean Diff (SE) vs. Placebo ([4]; 160 mg (n 14)): −0.1 (1.05) | QGG score, Change to Week 12, LS Mean (SE) ([4]; 160 mg (n 14)): 0.0 (0.84) | QGG score, Change to Week 24, LS Mean Diff (SE) vs. Placebo ([4]; 320 mg (n 14)): −1.2 (1.53) | QGG score, Change to Week 24, LS Mean (SE) ([4]; 320 mg (n 14)): −1.8 (1.31) | QGG score, Change to Week 12, LS Mean Diff (SE) vs. Placebo ([4]; 320 mg (n 16)): −0.2 (1.01) | QGG score, Change to Week 12, LS Mean (SE) ([4]; 320 mg (n 16)): −0.2 (0.79) | QGG score, Change to Week 24, LS Mean Diff (SE) vs. Placebo ([4]; All Compound 5 (n 14)): −1.2 (1.53) | QGG score, Change to Week 24, LS Mean (SE) ([4]; All Compound 5 (n 14)): −1.8 (1.31) | QGG score, Change to Week 12, LS Mean Diff (SE) vs. Placebo ([4]; All Compound 5 (n 63)): −0.1 (0.76) | QGG score, Change to Week 12, LS Mean (SE) ([4]; All Compound 5 (n 63)): −0.1 (0.40) | Ground glass scores over a 12-24 week period after treatment ([4]; instant study): decreased or remained stable | Target engagement [5]: dose dependent | patients with FVC improvement at week 12 who maintained improvement in FVC at week 24 [6]: About 89%
